According to ChEMBL document CHEMBL1201861, “Genomics of Drug Sensitity in Cancer screening data, Wellcome Trust Sanger Institute”:

Tests used:
Assay in all cases: cells
Type in all cases: functional, cell-based, Homo sapiens
D-247MG = settings: Homo sapiens, D-247MG
Description: SANGER: Inhibition of human D-247MG cell growth in a cell viability assay.

DJM-1 = settings: Homo sapiens, DJM-1;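 also: growth inhibition of human DJM-1 cells, read out by a cell viability assay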
Description: SANGER: Inhibition of human DJM-1 cell growth in a cell viability assay.

DMS-79 = settings: Homo sapiens, DMS-79;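 also: growth inhibition measured with a cell viability assay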
Description: SANGER: Inhibition of human DMS-79 cell growth in a cell viability assay.

DU-4475 = settings: Homo sapiens, DU-4475
Description: SANGER: Inhibition of human DU-4475 cell growth in a cell viability assay.

EW-1 = settings: Homo sapiens, EW-1
Description: SANGER: Inhibition of human EW-1 cell growth in a cell viability assay.

EW-18 = settings: Homo sapiens, EW-18;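 also: growth inhibition of EW-18 cells, read out by a cell viability assay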
Description: SANGER: Inhibition of human EW-18 cell growth in a cell viability assay.

GAK = settings: Homo sapiens, GAK;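 also: cell growth inhibition read out by a cell viability assay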
Description: SANGER: Inhibition of human GAK cell growth in a cell viability assay.

GB-1 = settings: Homo sapiens, GB-1;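 also: growth of GB-1 cells judged by a viability assay, IC50 marks the concentration inhibiting growth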
Description: SANGER: Inhibition of human GB-1 cell growth in a cell viability assay.

HDLM-2 = settings: Homo sapiens, HDLM-2;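 also: cell viability assay measuring suppression of HDLM-2 proliferation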
Description: SANGER: Inhibition of human HDLM-2 cell growth in a cell viability assay.

IST-MEL1 = settings: Homo sapiens, IST-MEL1;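 also: growth inhibition of the cell line, read out with a cell viability assay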
Description: SANGER: Inhibition of human IST-MEL1 cell growth in a cell viability assay.

K562 = settings: Homo sapiens, K562
Description: SANGER: Inhibition of human K-562 cell growth in a cell viability assay.

KALS-1 = settings: Homo sapiens, KALS-1;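 also: growth inhibition of KALS-1 cells, determined with a cell viability assay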
Description: SANGER: Inhibition of human KALS-1 cell growth in a cell viability assay.

KINGS-1 = settings: Homo sapiens, KINGS-1;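 also: cell viability assay measuring suppression of KINGS-1 cell growth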
Description: SANGER: Inhibition of human KINGS-1 cell growth in a cell viability assay.

L-363 = settings: Homo sapiens, L-363
Description: SANGER: Inhibition of human L-363 cell growth in a cell viability assay.

LOX IMVI = settings: Homo sapiens, LOX IMVI
Description: SANGER: Inhibition of human LOXIMVI cell growth in a cell viability assay.

LS-123 = settings: Homo sapiens, LS-123
Description: SANGER: Inhibition of human LS-123 cell growth in a cell viability assay.

MOLT-4 = settings: Homo sapiens, MOLT-4;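 also: growth inhibition of MOLT-4 cells, determined with a cell viability readout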
Description: SANGER: Inhibition of human MOLT-4 cell growth in a cell viability assay.

MS-1 = settings: Homo sapiens, MS-1;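 also: growth inhibition of MS-1 cells, read out by cell viability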
Description: SANGER: Inhibition of human MS-1 cell growth in a cell viability assay.

Mo = settings: Homo sapiens, Mo
Description: SANGER: Inhibition of human Mo-T cell growth in a cell viability assay.

NB10 = settings: Homo sapiens, NB10;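 also: growth inhibition of NB10 cells, read out by a cell viability assay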
Description: SANGER: Inhibition of human NB10 cell growth in a cell viability assay.

NB17 = settings: Homo sapiens, NB17;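 also: growth inhibition of NB17 cells, read out with a cell viability assay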
Description: SANGER: Inhibition of human NB17 cell growth in a cell viability assay.

NCI-H1304 = settings: Homo sapiens, NCI-H1304;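 also: growth inhibition of the cancer cell line, measured in a cell viability assay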
Description: SANGER: Inhibition of human NCI-H1304 cell growth in a cell viability assay.

NCI-H1581 = settings: Homo sapiens, NCI-H1581;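 also: cell growth inhibition read out by a viability assay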
Description: SANGER: Inhibition of human NCI-H1581 cell growth in a cell viability assay.

NCI-H1770 = settings: Homo sapiens, NCI-H1770;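 also: growth inhibition of NCI-H1770 cells determined with a viability readout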
Description: SANGER: Inhibition of human NCI-H1770 cell growth in a cell viability assay.

NCI-H526 = settings: Homo sapiens, NCI-H526;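 also: growth inhibition of the human NCI-H526 cell line, measured by a cell viability assay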
Description: SANGER: Inhibition of human NCI-H526 cell growth in a cell viability assay.

OCI-AML2 = settings: Homo sapiens, OCI-AML2;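 also: growth inhibition of OCI-AML2 cells, read out with a cell viability assay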
Description: SANGER: Inhibition of human OCI-AML2 cell growth in a cell viability assay.

OCUB-M = settings: Homo sapiens, OCUB-M;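 also: growth inhibition of the cancer cell line, read out through a cell viability assay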
Description: SANGER: Inhibition of human OCUB-M cell growth in a cell viability assay.

OVCAR-4 = settings: Homo sapiens, OVCAR-4;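 also: growth inhibition of human OVCAR-4 cells, measured with a cell viability assay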
Description: SANGER: Inhibition of human OVCAR-4 cell growth in a cell viability assay.

PSN1 = settings: Homo sapiens, PSN1;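 also: suppression of growth of human PSN1 cells, read out by a cell viability assay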
Description: SANGER: Inhibition of human PSN1 cell growth in a cell viability assay.

RH-1 = settings: Homo sapiens, RH-1;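 also: growth inhibition of human RH-1 cells, read out with a cell viability assay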
Description: SANGER: Inhibition of human RH-1 cell growth in a cell viability assay.

RPMI-8226 = settings: Homo sapiens, RPMI-8226
Description: SANGER: Inhibition of human RPMI-8226 cell growth in a cell viability assay.

RPMI-8866 = settings: Homo sapiens, RPMI-8866
Description: SANGER: Inhibition of human RPMI-8866 cell growth in a cell viability assay.

RXF 393 = settings: Homo sapiens, RXF 393;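 also: growth inhibition of human RXF 393 cells, read out with a cell viability assay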
Description: SANGER: Inhibition of human RXF393 cell growth in a cell viability assay.

Ramos-2G6-4C10 = settings: Homo sapiens, Ramos-2G6-4C10;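 also: growth inhibition of the cell line, measured by a cell viability read-out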
Description: SANGER: Inhibition of human Ramos-2G6-4C10 cell growth in a cell viability assay.

SCC-15 = settings: Homo sapiens, SCC-15;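 also: growth inhibition of SCC-15 cells, read out with a cell viability assay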
Description: SANGER: Inhibition of human SCC-15 cell growth in a cell viability assay.

SCH = settings: Homo sapiens, SCH;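 also: growth inhibition of human SCH cells, read out in a cell viability assay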
Description: SANGER: Inhibition of human SCH cell growth in a cell viability assay.

SF-268 = settings: Homo sapiens, SF-268;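 also: growth inhibition of SF-268 cells determined with a cell viability assay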
Description: SANGER: Inhibition of human SF268 cell growth in a cell viability assay.

SK-MEL-2 = settings: Homo sapiens, SK-MEL-2;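 also: growth inhibition of human SK-MEL-2 cells measured with a cell viability assay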
Description: SANGER: Inhibition of human SK-MEL-2 cell growth in a cell viability assay.

SW 954 = settings: Homo sapiens, SW 954;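 also: growth inhibition of SW954 human cancer cells, read out as cell viability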
Description: SANGER: Inhibition of human SW954 cell growth in a cell viability assay.

SW982 = settings: Homo sapiens, SW982;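 also: growth inhibition of SW982 cells, read out with a cell viability assay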
Description: SANGER: Inhibition of human SW982 cell growth in a cell viability assay.

BV-173 = settings: Homo sapiens, BV-173
Description: SANGER: Inhibition of human BV-173 cell growth in a cell viability assay.

TE-6 = settings: Homo sapiens, TE-6;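 also: growth inhibition of TE-6 cells, read out with a cell viability assay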
Description: SANGER: Inhibition of human TE-6 cell growth in a cell viability assay.

TGBC24TKB = settings: Homo sapiens, TGBC24TKB;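 also: growth inhibition of human TGBC24TKB cells, read out with a cell viability assay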
Description: SANGER: Inhibition of human TGBC24TKB cell growth in a cell viability assay.

U-266 = settings: Homo sapiens, U-266
Description: SANGER: Inhibition of human U-266 cell growth in a cell viability assay.

UACC-257 = settings: Homo sapiens, UACC-257
Description: SANGER: Inhibition of human UACC-257 cell growth in a cell viability assay.

no-11 = settings: Homo sapiens;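 also: growth inhibition of human NO-11 cells, read out with a cell viability assay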
Description: SANGER: Inhibition of human no-11 cell growth in a cell viability assay.

CGTH-W-1 = settings: Homo sapiens, CGTH-W-1;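 also: growth inhibition of human CGTH-W-1 cells measured by cell viability assay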
Description: SANGER: Inhibition of human CGTH-W-1 cell growth in a cell viability assay.

COc1cc2ncn(-c3cc(OCc4ccccc4C(F)(F)F)c(C(N)=O)s3)c2cc1OC [GW843682X]
IC50 (D-247MG): > 256 nM
IC50 (DJM-1): 60.6 nM
IC50 (DMS-79): > 256 nM
IC50 (DU-4475): 80 nM
IC50 (EW-1): 16.8 nM
IC50 (EW-18): > 256 nM
IC50 (GAK): 185 nM
IC50 (GB-1): 27.5 nM
IC50 (HDLM-2): 69.5 nM
IC50 (IST-MEL1): 28.8 nM
IC50 (K562): 59.4 nM
IC50 (KALS-1): 22.5 nM
IC50 (KINGS-1): 149 nM
IC50 (L-363): 81.2 nM
IC50 (LOX IMVI): 125 nM
IC50 (LS-123): 193 nM
IC50 (MOLT-4): 26.9 nM
IC50 (MS-1): 16 nM
IC50 (Mo): > 256 nM
IC50 (NB10): > 256 nM
IC50 (NB17): 41 nM
IC50 (NCI-H1304): 105 nM
IC50 (NCI-H1581): 30.5 nM
IC50 (NCI-H1770): > 256 nM
IC50 (NCI-H526): 88.3 nM
IC50 (OCI-AML2): 49.9 nM
IC50 (OCUB-M): 12.2 nM
IC50 (OVCAR-4): 71.5 nM
IC50 (PSN1): 5.83 nM
IC50 (RH-1): 242 nM
IC50 (RPMI-8226): 28.1 nM
IC50 (RPMI-8866): > 256 nM
IC50 (RXF 393): 105 nM
IC50 (Ramos-2G6-4C10): 37.4 nM
IC50 (SCC-15): > 256 nM
IC50 (SCH): > 256 nM
IC50 (SF-268): 83 nM
IC50 (SK-MEL-2): > 256 nM
IC50 (SW 954): 18.1 nM
IC50 (SW982): 25.3 nM
IC50 (BV-173): 17.7 nM
IC50 (TE-6): 17.9 nM
IC50 (TGBC24TKB): 45 nM
IC50 (U-266): 69.8 nM
IC50 (UACC-257): 130 nM
IC50 (no-11): 178 nM
IC50 (CGTH-W-1): > 256 nM
